Data as given in patent publication US8383094B2, “Hepatitis C virus inhibitors” (Bristol-Myers Squibb Company, priority 2008, dated 2013).
Where two headings read alike, the source gives them in different places.

System: HCV 1b genotype
Experiment: HCV Replicon assay (HCV-neo replicon cells, wild-type)
Assay type: cell-based
Method: An HCV Replicon assay was utilized in the present disclosure, and was prepared, conducted and validated as described in commonly owned PCT/US2006/022197 and in O′Boyle et. al. Antimicrob Agents Chemother, 2005 April; 49(4):1346-53. Assay methods incorporating luciferase reporters have also been used as described (Apath.com).
HCV-neo replicon cells and replicon cells containing mutations in the NS5A region were used to test the currently described family of compounds. The compounds were determined to have more than 10-fold less inhibitory activity on cells containing mutations than wild-type cells. Thus, the compounds of the present disclosure can be effective in inhibiting the function of the HCV NS5A protein and are understood to be as effective in combinations as previously described in application PCT/US2006/022197 and commonly owned WO/04014852. Further, the compounds of the present disclosure can be effective against the HCV 1b genotype. It should also be understood that the compounds of the present disclosure can inhibit multiple genotypes of HCV. […] In one embodiment, compounds of the present disclosure are inhibitory versus 1a, 1b, 2a, 2b, 3a, 4a, and 5a genotypes.

[1] = Hepatitis C virus, HCV 1b genotype replicon, range class A-D, read-out: 1b EC50 (in μM or range)
[2] = Hepatitis C virus, HCV 1b genotype replicon, read-out: 1b EC50 (in μM or range)

Row | Structure (SMILES) | EC50 [1] [nM] | other results
1 | COc1cccc2c(C(=O)N3CCC[C@H]3C(=O)Nc3ccc(C#Cc4ccc(NC(=O)[C@@H]5CCCN5C(=O)Cc5cccnc5)cc4)cc3)nc(Cl)cc12 [Example D45, (2S)-1-((3-Chloro-5-methoxy-1-isoquinolinyl)carbonyl)-N-(4-((4-((((2S)-1-(3-pyridinylacetyl)-2-pyrrolidinyl)carbonyl)amino)phenyl)ethynyl)phenyl)-2-pyrrolidinecarboxamide] | 100 to 999 | –
2 | CN[C@H](C(=O)N1CCC[C@H]1C(=O)Nc1ccc(C#Cc2ccc(NC(=O)[C@@H]3CCCN3C(=O)[C@@H](NC)c3ccccc3)cc2)cc1)c1ccccc1 [VN31, (2S,2′S)-N,N′-(1,2-ethynediyldi-4,1-phenylene)bis(1-((2S)-2-(methylamino)-2-phenylacetyl)-2-pyrrolidinecarboxamide)] | < 4.57 | –
3 | C[C@](O)(C(=O)N1CCC[C@H]1C(=O)Nc1ccc(C#Cc2ccc(NC(=O)[C@@H]3CCCN3C(=O)[C@](C)(O)c3ccccc3)cc2)cc1)c1ccccc1 [VN2, (2S,2′S)-N,N′-(1,2-ethynediyldi-4,1-phenylene)bis(1-((2R)-2-hydroxy-2-phenylpropanoyl)-2-pyrrolidinecarboxamide)] | < 4.57 | –
4 | COc1cccc2c(C(=O)N3CCC[C@H]3C(=O)Nc3ccc(C#Cc4ccc(NC(=O)[C@@H]5CCCN5C(C)=O)cc4)cc3)nc(Cl)cc12 [Example D46, (2S)-1-Acetyl-N-(4-((4-((((2S)-1-((3-chloro-5-methoxy-1-isoquinolinyl)carbonyl)-2-pyrrolidinyl)carbonyl)amino)phenyl)ethynyl)phenyl)-2-pyrrolidinecarboxamide] | 100 to 999 | –
5 | CCOC(=O)N[C@@H](C(=O)N1CCC[C@H]1C(=O)Nc1ccc(C#Cc2ccc(NC(=O)[C@@H]3CCCN3C(=O)[C@H](NC(=O)OCC)c3ccccc3)cc2)cc1)c1ccccc1 [VN54, Diethyl (1,2-ethynediylbis(4,1-phenylenecarbamoyl(2S)-2,1-pyrrolidinediyl((1R)-2-oxo-1-phenyl-2,1-ethanediyl)))biscarbamate] | – | EC50 [2]: 0.018 nM
6 | CCC(=O)N[C@@H](C(=O)N1CCC[C@H]1C(=O)Nc1ccc(C#Cc2ccc(NC(=O)[C@@H]3CCCN3C(=O)[C@H](NC(=O)CC)c3ccccc3)cc2)cc1)c1ccccc1 [VN24, (2S,2′S)-N,N′-(1,2-ethynediyldi-4,1-phenylene)bis(1-((2R)-2-phenyl-2-(propionylamino)acetyl)-2-pyrrolidinecarboxamide)] | – | EC50 [2]: > 10000 nM
7 | COc1ccc2c(C(=O)N3CCC[C@H]3C(=O)Nc3ccc(C#Cc4ccc(NC(=O)[C@@H]5CCCN5C(=O)c5nc(Cl)cc6cc(OC)ccc56)cc4)cc3)nc(Cl)cc2c1 [Example D35, (2S,2′S)-N,N′-(1,2-ethynediyldi-4,1-phenylene)bis(1-((3-chloro-6-methoxy-1-isoquinolinyl)carbonyl)-2-pyrrolidinecarboxamide)] | – | EC50 [2]: 94 nM
8 | CC(C)(C(=O)N1CCC[C@H]1C(=O)Nc1ccc(C#Cc2ccc(NC(=O)[C@@H]3CCCN3C(=O)C(C)(C)c3ccccc3)cc2)cc1)c1ccccc1 [VN3, (2S,2′S)-N,N′-(1,2-ethynediyldi-4,1-phenylene)bis(1-(2-methyl-2-phenylpropanoyl)-2-pyrrolidinecarboxamide)] | 4.57 to 99 | –
9 | O=C(Nc1ccc(C#Cc2ccc(NC(=O)[C@@H]3CCCN3C(=O)C(F)c3ccccc3)cc2)cc1)[C@@H]1CCCN1C(=O)C(F)c1ccccc1 (stereo partly drawn) [VN8, (2S,2′S)-N,N′-(1,2-ethynediyldi-4,1-phenylene)bis(1-(fluoro(phenyl)acetyl)-2-pyrrolidinecarboxamide)] | < 4.57 | –
10 | O=C(Nc1ccc(C#Cc2ccc(NC(=O)[C@@H]3CCCN3C(=O)C(c3ccccc3)N3CC[C@H](O)C3)cc2)cc1)[C@@H]1CCCN1C(=O)C(c1ccccc1)N1CC[C@H](O)C1 (stereo partly drawn) [VN50, (2S,2′S)-N,N′-(1,2-ethynediyldi-4,1-phenylene)bis(1-(((3S)-3-hydroxy-1-pyrrolidinyl)(phenyl)acetyl)-2-pyrrolidinecarboxamide)] | – | EC50 [2]: 0.5 nM
11 | O=C(Nc1ccc(C#Cc2ccc(NC(=O)[C@@H]3CCCN3C(=O)[C@H]3CCCO3)cc2)cc1)C1CC1 [Example D6, N-(4-((4-((cyclopropylcarbonyl)amino)phenyl)ethynyl)phenyl)-1-((2R)-tetrahydro-2-furanylcarbonyl)-L-prolinamide] | 100 to 999 | –
12 | O=C(Nc1ccc(C#Cc2ccc(NC(=O)[C@@H]3CCCN3C(=O)OCc3ccccc3)cc2)cc1)[C@H]1CCCO1 [Example D21, Benzyl (2S)-2-((4-((4-(((2R)-tetrahydro-2-furanylcarbonyl)amino)phenyl)ethynyl)phenyl)carbamoyl)-1-pyrrolidinecarboxylate] | 100 to 999 | –
13 | CC(C)(C)OC(=O)N[C@H](C(=O)N1CCC[C@H]1C(=O)Nc1ccc(C#Cc2ccc(NC(=O)[C@@H]3CCCN3C(=O)[C@@H](NC(=O)OC(C)(C)C)c3ccccc3)cc2)cc1)c1ccccc1 [VN22, Step a, di-tert-butyl(1,2-ethynediylbis(4,1-phenylenecarbamoyl(2S)-2,1-pyrrolidinediyl((1S)-2-oxo-1-phenyl-2,1-ethanediyl)))biscarbamate] | < 4.57 | –
14 | CN(C)[C@@H](C(=O)N1CCC[C@H]1C(=O)Nc1ccc(C#Cc2ccc(NC(=O)[C@@H]3CCCN3C(=O)[C@@H](c3ccc(F)cc3)N(C)C)cc2)cc1)c1ccc(F)cc1 [Example D36, (2S,2′S)-N,N′-(1,2-ethynediyldi-4,1-phenylene)bis(1-((2R)-2-(dimethylamino)-2-(4-fluorophenyl)acetyl)-2-pyrrolidinecarboxamide)] | < 4.57 | –
15 | O=C(Nc1ccc(C#Cc2ccc(NC(=O)[C@@H]3CCCN3C(=O)/C=C/c3ccccc3)cn2)nc1)[C@@H]1CCCN1C(=O)/C=C/c1ccccc1 [Example D53, (2S,2′S)-N,N′-(1,2-ethynediyldi-2,5-pyridinediyl)bis(1-((2E)-3-phenyl-2-propenoyl)-2-pyrrolidinecarboxamide)] | – | EC50 [2]: 2730 nM
16 | O=C(Nc1cncc(C#Cc2cncc(NC(=O)[C@@H]3CCCN3C(=O)Cc3ccccc3)c2)c1)[C@@H]1CCCN1C(=O)Cc1ccccc1 [YQ2, (2S,2′S)-N,N′-(1,2-ethynediyldi-5,3-pyridinediyl)bis(1-(phenylacetyl)-2-pyrrolidinecarboxamide)] | – | EC50 (Hepatitis C virus, read-out: 1b EC50 (in μM or range), HCV 1b genotype replicon): 523000 nM
17 | CC(=O)N1CCC[C@H]1C(=O)Nc1ccc(C#Cc2ccc(NC(=O)[C@@H]3C[C@@H](OC(C)(C)C)CN3C(=O)OCc3ccccc3)cc2)cc1 [Example D7, Benzyl (2S,4R)-2-((4-((4-((((2S)-1-acetyl-2-pyrrolidinyl)carbonyl)amino)phenyl)ethynyl)phenyl)carbamoyl)-4-tert-butoxy-1-pyrrolidinecarboxylate] | 1000 to 10000 | –
18 | CN(C)C(C)(C(=O)N1CCC[C@H]1C(=O)Nc1ccc(C#Cc2ccc(NC(=O)[C@@H]3CCCN3C(=O)C(C)(c3ccccc3)N(C)C)cc2)cc1)c1ccccc1 (stereo partly drawn) [VN38, (2S,2′S)-N,N′-(1,2-ethynediyldi-4,1-phenylene)bis(1-(2-(dimethylamino)-2-phenylpropanoyl)-2-pyrrolidinecarboxamide)] | – | EC50 (HCV 1b genotype replicon, range class A-D, read-out: 1b EC50 (in μM or range)): < 4.57 nM
19 | CN(C)C(C)(C(=O)N1CCC[C@H]1C(=O)Nc1ccc(C#Cc2ccc(NC(=O)[C@@H]3CCCN3C(=O)C(C)(c3ccccc3)N(C)C)cc2)cc1)c1ccccc1 (stereo partly drawn) [VN37, (2S,2′S)-N,N′-(1,2-ethynediyldi-4,1-phenylene)bis(1-(2-(dimethylamino)-2-phenylpropanoyl)-2-pyrrolidinecarboxamide)] | < 4.57 | –
20 | O=C(Nc1ccc(C#Cc2ccc(NC(=O)[C@@H]3CCCN3C(=O)[C@@H](c3ccccc3)N3CCCC3)cc2)cc1)[C@@H]1CCCN1C(=O)[C@@H](c1ccccc1)N1CCCC1 [VN12, (2S,2′S)-N,N′-(1,2-ethynediyldi-4,1-phenylene)bis(1-((2R)-2-phenyl-2-(1-pyrrolidinyl)acetyl)-2-pyrrolidinecarboxamide)] | < 4.57 | –
21 | O=C(Nc1ccc(C#Cc2ccc(NC(=O)[C@@H]3CCCN3C(=O)C(c3ccccc3)N3CC[C@@H](O)C3)cc2)cc1)[C@@H]1CCCN1C(=O)C(c1ccccc1)N1CC[C@@H](O)C1 (stereo partly drawn) [VN52, (2S,2′S)-N,N′-(1,2-ethynediyldi-4,1-phenylene)bis(1-(((3R)-3-hydroxy-1-pyrrolidinyl)(phenyl)acetyl)-2-pyrrolidinecarboxamide)] | < 4.57 | –
22 | CC(=O)N[C@@H](C)C(=O)N1CCC[C@H]1C(=O)Nc1ccc(C#Cc2ccc(NC(=O)[C@@H]3CCCN3C(=O)[C@H](C)NC(C)=O)cc2)cc1 [VN15, (2S,2′S)-N,N′-(1,2-ethynediyldi-4,1-phenylene)bis(1-((2S)-2-acetamidopropanoyl)-2-pyrrolidinecarboxamide)] | 100 to 999 | –
23 | O=C(Nc1ccc(C#Cc2ccc(NC(=O)[C@@H]3CCCN3C(=O)Cc3ccccc3)cn2)nc1)[C@@H]1CCCN1C(=O)Cc1ccccc1 [Example D52, (2S,2′S)-N,N′-(6,6′-(ethyne-1,2-diyl)bis(pyridine-6,3-diyl))bis(1-(2-phenylacetyl)pyrrolidine-2-carboxamide)] | 4.57 to 99 | –
24 | O=C(Nc1ccc(C#Cc2ccc(NC(=O)[C@@H]3CCCN3C(=O)[C@@H](O)c3ccccc3)cc2)cc1)[C@@H]1CCCN1C(=O)c1nc(Cl)cc2ccccc12 [Example D42, (2S)-1-((3-Chloro-1-isoquinolinyl)carbonyl)-N-(4-((4-((((2S)-1-((2S)-2-hydroxy-2-phenylacetyl)-2-pyrrolidinyl)carbonyl)amino)phenyl)ethynyl)phenyl)-2-pyrrolidinecarboxamide] | – | EC50 [2]: 17 nM
